Biological target: T1, Human ENaC δ, β and γ subunit (Homo sapiens, UniProt P51168+P51170+P51172)
T1 construct: expressed in transfected cells; host or cells: Xenopus laevis (African clawed frog) oocytes injected with cRNA
T1 sequence (P51172 1-802): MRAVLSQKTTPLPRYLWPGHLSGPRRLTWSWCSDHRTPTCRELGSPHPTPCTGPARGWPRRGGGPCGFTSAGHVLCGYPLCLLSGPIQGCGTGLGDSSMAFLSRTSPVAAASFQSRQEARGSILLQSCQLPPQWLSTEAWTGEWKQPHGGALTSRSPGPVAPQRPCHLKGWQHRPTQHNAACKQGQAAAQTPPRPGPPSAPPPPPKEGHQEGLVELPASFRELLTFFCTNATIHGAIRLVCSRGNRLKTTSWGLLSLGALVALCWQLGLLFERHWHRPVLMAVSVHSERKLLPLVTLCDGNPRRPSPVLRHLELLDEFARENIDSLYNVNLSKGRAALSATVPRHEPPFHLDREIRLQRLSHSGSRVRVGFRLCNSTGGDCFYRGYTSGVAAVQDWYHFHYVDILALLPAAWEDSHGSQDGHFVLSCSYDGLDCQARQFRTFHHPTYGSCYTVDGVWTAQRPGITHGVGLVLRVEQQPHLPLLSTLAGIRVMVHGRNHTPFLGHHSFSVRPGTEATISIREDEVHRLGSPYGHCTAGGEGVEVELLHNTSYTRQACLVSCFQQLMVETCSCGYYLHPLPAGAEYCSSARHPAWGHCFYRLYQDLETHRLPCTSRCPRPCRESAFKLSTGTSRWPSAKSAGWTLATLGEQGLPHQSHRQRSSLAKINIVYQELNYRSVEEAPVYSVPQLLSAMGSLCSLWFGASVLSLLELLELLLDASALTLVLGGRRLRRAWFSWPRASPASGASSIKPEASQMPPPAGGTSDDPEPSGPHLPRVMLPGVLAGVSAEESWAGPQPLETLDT
T1 sequence (P51168 1-640): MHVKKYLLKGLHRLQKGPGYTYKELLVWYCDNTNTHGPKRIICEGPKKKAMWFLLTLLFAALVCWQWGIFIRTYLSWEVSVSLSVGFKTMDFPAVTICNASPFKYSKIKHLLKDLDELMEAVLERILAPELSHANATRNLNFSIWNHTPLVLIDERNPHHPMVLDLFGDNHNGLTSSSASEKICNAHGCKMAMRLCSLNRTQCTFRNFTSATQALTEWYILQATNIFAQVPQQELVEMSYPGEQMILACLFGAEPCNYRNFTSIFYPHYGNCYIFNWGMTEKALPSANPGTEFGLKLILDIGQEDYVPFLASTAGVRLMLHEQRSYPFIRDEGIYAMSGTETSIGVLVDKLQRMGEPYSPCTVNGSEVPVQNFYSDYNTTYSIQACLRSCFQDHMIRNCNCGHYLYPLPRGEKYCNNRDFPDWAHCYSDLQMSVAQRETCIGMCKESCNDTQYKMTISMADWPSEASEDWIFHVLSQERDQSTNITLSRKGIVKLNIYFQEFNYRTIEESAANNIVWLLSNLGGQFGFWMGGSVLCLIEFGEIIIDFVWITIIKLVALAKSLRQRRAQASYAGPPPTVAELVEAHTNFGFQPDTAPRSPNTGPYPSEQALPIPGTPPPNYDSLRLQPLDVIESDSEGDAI
T1 sequence (P51170 1-649): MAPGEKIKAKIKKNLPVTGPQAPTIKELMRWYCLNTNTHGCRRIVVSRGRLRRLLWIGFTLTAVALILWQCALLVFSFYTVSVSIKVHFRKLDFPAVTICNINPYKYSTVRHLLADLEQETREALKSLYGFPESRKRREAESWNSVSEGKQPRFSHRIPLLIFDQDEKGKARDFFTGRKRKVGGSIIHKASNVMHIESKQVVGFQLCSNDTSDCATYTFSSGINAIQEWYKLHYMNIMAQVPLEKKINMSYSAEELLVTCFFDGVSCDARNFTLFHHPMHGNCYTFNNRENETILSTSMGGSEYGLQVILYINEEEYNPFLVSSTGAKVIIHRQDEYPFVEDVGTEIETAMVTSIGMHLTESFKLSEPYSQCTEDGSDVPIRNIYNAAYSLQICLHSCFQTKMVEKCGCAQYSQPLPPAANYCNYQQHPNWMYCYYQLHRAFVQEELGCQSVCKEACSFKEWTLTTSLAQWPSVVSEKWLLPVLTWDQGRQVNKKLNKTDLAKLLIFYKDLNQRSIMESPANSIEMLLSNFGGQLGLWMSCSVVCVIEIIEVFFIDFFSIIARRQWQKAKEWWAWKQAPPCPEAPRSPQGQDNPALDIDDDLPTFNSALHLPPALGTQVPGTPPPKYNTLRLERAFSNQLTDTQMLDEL
Assay: Measurement of ENaC activation potency (MED) in ENaC-expressing oocyte, Two Electrode Voltage Clamp
Format: cell-based
Settings: minimum effective dose at which current started to increase; ENaC-expressing African clawed frog oocyte; smaller MED = higher ENaC activation potency
How it was run: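 Xenopus oocytes injected with human ENaC δ, β and γ cRNA, cultured 16–72 hr, voltage-clamped 30 mV below resting potential in ND96 (pH 7.6) by two-electrode voltage clamp. Compounds (0.1 nM–300 μM) perfused at rising concentrations every 3 min. MED = lowest dose raising current ≥10%, or raising 5 μM capsazepine-evoked current ≥25%, whichever smaller.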

SMILES | MED [µM]
C[C@@H](NC(=S)NCCc1ccccc1C(=O)O)c1cccc(O)c1 [Example 125, 2-(2-{3-[(R)-1-(3-hydroxyphenyl)ethyl]thioureido}ethyl)benzoic acid] | 0.06 to 0.1
COc1cccc(OC)c1NC(=S)NCCc1c[nH]c2ccc(O)cc12 [Example 126] | 10
